In US20150329467A1, “FLUORINE ATOM-CONTAINING PHENOL COMPOUND” (FUJIFILM CORPORATION, priority 2012, published 2015):
Entries after “also recorded” stand apart in the source; their conditions may differ.

Assay: Solubility check: coated film of Cytop CTL-809M fluororesin solution observed by optical microscope for bleed-out or undissolved compound
Assay type: physicochemical
Settings: compound at 0.3 wt % with respect to Cytop CTL-809M in perfluorotributylamine/1,1,1,3,3,3-hexafluoropropan-2-ol/Cytop CTL-809M=91/5/4 (parts by weight); film 1.5 μm on glass, dried
Procedure: To a mixed solution of perfluorotributylamine/1,1,1,3,3,3-hexafluoropropan-2-ol/Cytop CTL-809M (manufactured by Asahi Glass Co., Ltd.)=91/5/4 (parts by weight), was added the compound represented by formula (1) according to the invention (any of Compounds 1-1 to 1-8) or Comparative Compound C-1 or C-2 as shown below in an amount of 0.3 wt % with respect to the Cytop CTL-809M. Thereafter, the mixed solution was applied onto a glass substrate to a film thickness of 1.5 μm and dried.

For `CC(C)(C)c1cc(CCC(=O)OCC(F)(F)C(F)(F)C(F)(F)C(F)(F)C(F)(F)C(F)(F)C(F)(F)C(F)(F)C(F)(F)F)cc(C(C)(C)C)c1O` [Compound 1-1], which Solubility is on record?
Its Solubility is “Compatible”.

For `CC(C)(C)c1cc(CCC(=O)OCC(O)CC(F)(F)C(F)(F)C(F)(F)C(F)(F)C(F)(F)C(F)(F)C(F)(F)C(F)(F)F)cc(C(C)(C)C)c1O` (stereo not shown) [Compound 1-2], which Solubility is on record?
The Solubility was “Compatible”.

With `Cc1cc(CCC(=O)OCC(F)(F)C(F)(F)C(F)(F)C(F)(F)C(F)(F)C(F)(F)C(F)(F)C(F)(F)C(F)(F)F)cc(C(C)(C)C)c1O` [Compound 1-3] as the molecule, how does the Solubility read?
The Solubility was “Compatible”.

With `CC(C)(C)c1cc(CCC(=O)OCC(F)(F)C(F)(F)C(F)(F)C(F)(F)C(F)(F)C(F)(F)C(F)(F)C(F)(F)F)cc(C(C)(C)C)c1O` [Compound 1-4] as the molecule, how does the Solubility read?
Its Solubility is “Compatible”.

With `CC(C)(C)c1cc(CCC(=O)OCCC(F)(F)C(F)(F)C(F)(F)C(F)(F)C(F)(F)C(F)(F)F)cc(C(C)(C)C)c1O` [Compound 1-5] as the molecule, how does the Solubility read?
The Solubility was “Compatible”.

For `Cc1cc(CCC(=O)OCC(F)(F)C(F)(F)C(F)(F)C(F)(F)C(F)(F)C(F)(F)C(F)(F)C(F)(F)C(F)(F)F)cc(C)c1O` [Compound 1-6], which Solubility is on record?
The Solubility was “Compatible”.

For `CC(C)(C)c1cc(CCC(=O)OC(CO)CC(F)(F)C(F)(F)C(F)(F)C(F)(F)C(F)(F)C(F)(F)F)cc(C(C)(C)C)c1O` (stereo not shown) [Compound 1-7], which Solubility is on record?
Its Solubility is “Compatible”.

Which Solubility does the source give for `Cc1cc(CCC(=O)OCC(F)(F)C(F)(F)C(F)(F)C(F)(F)C(F)(F)C(F)(F)C(F)(F)C(F)(F)C(F)(F)C(F)(F)F)cc(C)c1O` [Compound 1-8] here?
Its Solubility is “Compatible”.

With `CCCCCCCCCCOC(=O)CCc1cc(C(C)(C)C)c(O)c(C(C)(C)C)c1` [Compound C-1, reference compound] as the molecule, how does the Solubility read?
Its Solubility is “remained partially undissolved; also recorded: Remain partially”.

With `CC(C)(C)c1cc(CCC(=O)OCC(O)CC(F)(F)C(F)(F)C(F)(F)F)cc(C(C)(C)C)c1O` (stereo not shown) [Compound C-2, reference compound] as the molecule, how does the Solubility read?
The Solubility was “bled out on the resin surface; also recorded: Bleed out (a compound which bleeds out is denoted by “Bleed out,”)”.
